# Patent US6150365A, “Anxiety method” (priority 2000, dated 2000)
# Entries after “also recorded” stand apart in the source; their conditions may differ. Where two headings read alike, the source gives them in different places.
# Legend:
# human 5-HT1A receptor = target: T1, human 5-HT1A receptor (Homo sapiens, UniProt P08908); assay: 5-HT1A receptor binding assay (3H-8-OH-DPAT)
# T1 construct: expressed in transfected cells; host or cells: HEK293
# T1 sequence (P08908 1-422): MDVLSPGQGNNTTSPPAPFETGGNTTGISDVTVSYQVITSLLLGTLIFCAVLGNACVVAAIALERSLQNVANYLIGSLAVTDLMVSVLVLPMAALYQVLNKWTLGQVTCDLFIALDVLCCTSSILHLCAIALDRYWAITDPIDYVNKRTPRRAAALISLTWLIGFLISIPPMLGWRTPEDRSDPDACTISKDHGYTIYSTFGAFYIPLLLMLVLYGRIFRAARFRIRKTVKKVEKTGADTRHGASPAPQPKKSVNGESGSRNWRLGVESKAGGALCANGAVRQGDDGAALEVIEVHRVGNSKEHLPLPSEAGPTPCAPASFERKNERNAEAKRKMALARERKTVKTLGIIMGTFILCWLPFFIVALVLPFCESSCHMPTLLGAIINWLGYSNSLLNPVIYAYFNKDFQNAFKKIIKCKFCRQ
# [1] = cited from earlier work
# dorsal raphe neurons = details: systemic administration (I.V. and intragastric for metabolites), rats; cited from earlier work
# [2] = test system: rat pup ultrasonic vocalization; assay: Rat pup isolation-induced ultrasonic vocalization test; assay type: in vivo, rat (Harlan Sprague-Dawley pups); details: for suppression of rat pup ultrasonic vocalization: 0.03-1 mg/kg, cold plate; for suppression of rat pup ultrasonic vocalization / ED50: sc, 30 min prior to test; for ED50: Rattus norvegicus, 0.5 h, doses refer to weight of the salt, read-out: ID50, dose predicted to reduce the number of calls by 50%; for anxiolytic activity in rat pup isolation-induced ultrasonic vocalization model (in words): in vivo
# [3] = test system: rat pup locomotor activity; assay: Locomotor activity (grid cell crossings) in the rat pup; assay type: in vivo, rat (Harlan Sprague-Dawley pups); details: sc; for locomotor activity (in words): 0.03-1 mg/kg
# clinical = assay type: in vivo
# From the text: The human dosing schedule is shown below. |______________________________________ […] | Interval BID Dose (mg) (Study Day) |______________________________________ […] | 3 15 15 […] | 5 30 25 |______________________________________
# [4] = cited from earlier work; remark: listed apart in the source
# [5] = Previous laboratory testing for antianxiety properties; details: laboratory methods developed for azapirone compounds
# [6] = Modified Vogel Conflict test; assay type: in vivo; details: earlier in-house testing
# From the text: Earlier in-house functional testing of BMY 28674 utilized an in vivo test method based on modification of the Vogel Conflict test, a simple reliable conflict procedure for testing antianxiety agents (see: Vogel, et al., Psychopharmacologia, (Berl.) 21, pp. 1-7, 1971). […] No useful antianxiety activity has been ascribed to BMY 28674 previously.
SMILES,affinity for human 5-HT1A receptor (in words) (human 5-HT1A receptor),inhibition of dorsal raphe neuronal firing (dorsal raphe neurons),suppression of rat pup ultrasonic vocalization [2],ED50 [2] [mg/kg],anxiolytic activity in rat pup isolation-induced ultrasonic vocalization model (in words) [2],locomotor activity (in words) ([3]; 30 min prior to test),further results
"c1cnc(N2CCNCC2)nc1 [1-PP, 1-(2-pyrimidinyl)piperazine]",does not demonstrate binding,weak inhibition,–,–,–,–,"anxiogenic properties in other behavioral testing paradigms ([1]; Cervo et al., 1988, Martin, 1991): displayed anxiogenic properties; antianxiety activity in certain other preclinical tests ([1]; U.S. Pat. No. 4,409,223): some antianxiety activity"
"O=C1CC2(CCCC2)CC(=O)N1CCCCN1CCN(c2ncccn2)CC1 [Buspirone, reference compound]",–,potently inhibits,dose-dependent suppression,0.1,anxiolytic-like activity,impaired,"concentration at 2 h (clinical; human, in vivo, po): < 1 ng/mL"
"Oc1cnc(N2CCNCC2)nc1 [5-hydroxy-1PP, reference compound]",–,–,–,–,–,–,abundance as metabolite in human urine ([4]; in vivo): most
"O=C1CC2(CCCC2)C(O)C(=O)N1CCCCN1CCN(c2ncccn2)CC1 (stereo not drawn) [BMY 28674, 6-hydroxy-8-[4-[4-(2-pyrimidinyl)-piperazinyl]-butyl]-8-azaspiro[4.5]-7,9-dione]",binding affinity that approaches that of buspirone; also recorded: binding affinity closer to that of buspirone,–,dose-dependent suppression,0.13,anxiolytic-like activity,significantly impaired,"antianxiety activity in previous testing [5]: no anxiolytic activity was detected; also recorded: No significant antianxiety activity; abundance as metabolite in human urine ([4]; after buspirone): second most abundant metabolite; doses for anxiolytic activity relative to those required to suppress motor activity ([2]; vs suppression of motor activity): much lower doses; ED50 ([3]; Rattus norvegicus, 0.5 h, 30 min prior to test, doses refer to weight of the salt, read-out: ID50 dose estimated to reduce locomotor activity): 0.41 mg/kg; ratio of doses impairing locomotor activity to doses suppressing ultrasonic calls ([3]; locomotor vs ultrasonic calls, 30 min): approximately 3 fold; blood concentration relative to 1-PP (clinical; after oral buspirone, BMY 28674 vs 1-PP): several-fold greater; also recorded: several-fold higher; blood levels compared to buspirone (in words) (clinical; oral buspirone BID, 12-hour dosing period): much higher and are sustained compared to buspirone; antianxiety response in the Vogel test [6]: did not elicit an antianxiety response"
